Reference: ChEMBL document CHEMBL5055653, “Synthesis, microbiological evaluation and structure activity relationship analysis of linezolid analogues with different C5-acylamino substituents” (2021)
Values after ≈ are worked out from the molar mass of the structure shown. Active and inactive are the calls of the source. The calls are words filed in the database; no cut-off is given here.

What was measured:
Staphylococcus aureus [1] = experiment: Antibacterial activity against Staphylococcus aureus NCTC 13616 assessed as reduction in bacterial growth incubated for 20 hrs by microplate reader method; type: functional
Staphylococcus aureus [2] = experiment: Antibacterial activity against Staphylococcus aureus ATCC 9144 assessed as reduction in bacterial growth incubated for 20 hrs by microplate reader method; type: functional
Staphylococcus aureus [3] = experiment: Antibacterial activity against Staphylococcus aureus USA 300 assessed as reduction in bacterial growth incubated for 20 hrs by microplate reader method; type: functional
Staphylococcus aureus [4] = experiment: Antibacterial activity against Staphylococcus aureus 1199B assessed as reduction in bacterial growth incubated for 20 hrs by microplate reader method; type: functional
Enterococcus faecalis [5] = experiment: Antibacterial activity against Vanomycin-sensitive Enterococcus faecalis NCTC 775 assessed as reduction in bacterial growth incubated for 20 hrs by microplate reader method; type: functional
Enterococcus faecalis [6] = experiment: Antibacterial activity against Vanomycin-resistant Enterococcus faecalis NCTC 12201 assessed as reduction in bacterial growth incubated for 20 hrs by microplate reader method; type: functional
Enterococcus faecium = experiment: Antibacterial activity against Vanomycin-resistant Enterococcus faecium NCTC 12204 assessed as reduction in bacterial growth incubated for 20 hrs by microplate reader method; type: functional
Acinetobacter baumannii [7] = experiment: Antibacterial activity against Acinetobacter baumannii AYE assessed as reduction in bacterial growth incubated for 20 hrs in presence of PMBN by microplate reader method; type: functional, organism-based
Acinetobacter baumannii [8] = experiment: Antibacterial activity against Acinetobacter baumannii ATCC 17978 assessed as reduction in bacterial growth incubated for 20 hrs in presence of PMBN by microplate reader method; type: functional, organism-based
Pseudomonas aeruginosa [9] = experiment: Antibacterial activity against Pseudomonas aeruginosa PAO1 assessed as reduction in bacterial growth incubated for 20 hrs in presence of PMBN by microplate reader method; type: functional
Pseudomonas aeruginosa [10] = experiment: Antibacterial activity against Pseudomonas aeruginosa NCTC 13437 assessed as reduction in bacterial growth incubated for 20 hrs in presence of PMBN by microplate reader method; type: functional, organism-based
Escherichia coli = experiment: Antibacterial activity against Escherichia coli NCTC 12923 assessed as reduction in bacterial growth incubated for 20 hrs in presence of PMBN by microplate reader method; type: functional, organism-based

Row | SMILES | MIC (Staphylococcus aureus [1]) [mg/L] | MIC (Staphylococcus aureus [2]) [mg/L] | MIC (Staphylococcus aureus [3]) [mg/L] | MIC (Staphylococcus aureus [4]) [mg/L] | MIC (Enterococcus faecalis [5]) [mg/L] | MIC (Enterococcus faecalis [6]) [mg/L] | MIC (Enterococcus faecium) [mg/L] | Activity (Acinetobacter baumannii [7]) | Activity (Acinetobacter baumannii [8]) | MIC (Pseudomonas aeruginosa [9]) [mg/L] | Activity (Pseudomonas aeruginosa [10]) | Activity (Escherichia coli) | Activity (Pseudomonas aeruginosa [9])
1 | O=C(NC[C@H]1CN(c2ccc(N3CCOCC3)c(F)c2)C(=O)O1)c1cncs1 | 16 (≈ 39.4 µM) | 16 (≈ 39.4 µM) | 16 (≈ 39.4 µM) | 16 (≈ 39.4 µM) | 16 (≈ 39.4 µM) | 16 (≈ 39.4 µM) | 16 (≈ 39.4 µM) | inactive | inactive | 16 | inactive | inactive | –
2 | Cn1cc([N+](=O)[O-])nc1C(=O)NC[C@H]1CN(c2ccc(N3CCOCC3)c(F)c2)C(=O)O1 | > 128 | > 128 | > 128 | > 128 | > 128 | > 128 | > 128 | – | – | – | – | – | –
3 | O=C(NC[C@H]1CN(c2ccc(N3CCOCC3)c(F)c2)C(=O)O1)C1CCC1 | 8 (≈ 21.2 µM) | 16 (≈ 42.4 µM) | 16 (≈ 42.4 µM) | 8 (≈ 21.2 µM) | 16 (≈ 42.4 µM) | 8 (≈ 21.2 µM) | 8 (≈ 21.2 µM) | – | – | – | – | – | –
4 | NCC(=O)NC[C@H]1CN(c2ccc(N3CCOCC3)c(F)c2)C(=O)O1 | > 128 | > 128 | > 128 | > 128 | 64 (≈ 182 µM) | 64 (≈ 182 µM) | 32 (≈ 90.8 µM) | – | – | – | – | – | –
5 | O=C(NC[C@H]1CN(c2ccc(N3CCOCC3)c(F)c2)C(=O)O1)C1CC=CC1 | 16 (≈ 41.1 µM) | 16 (≈ 41.1 µM) | 16 (≈ 41.1 µM) | 8 (≈ 20.5 µM) | 16 (≈ 41.1 µM) | 8 (≈ 20.5 µM) | 16 (≈ 41.1 µM) | – | – | – | – | – | –
6 | O=C(NC[C@H]1CN(c2ccc(N3CCOCC3)c(F)c2)C(=O)O1)c1cnco1 | 128 (≈ 328 µM) | 128 (≈ 328 µM) | > 128 | 128 (≈ 328 µM) | 64 (≈ 164 µM) | 128 (≈ 328 µM) | 128 (≈ 328 µM) | inactive | inactive | – | inactive | inactive | inactive
7 | O=C(NC[C@H]1CN(c2ccc(N3CCOCC3)c(F)c2)C(=O)O1)C1CC1 | 8 (≈ 22 µM) | 8 (≈ 22 µM) | 8 (≈ 22 µM) | 8 (≈ 22 µM) | 8 (≈ 22 µM) | 8 (≈ 22 µM) | 8 (≈ 22 µM) | – | – | – | – | – | –
8 | CCC(=O)NC[C@H]1CN(c2ccc(N3CCOCC3)c(F)c2)C(=O)O1 | 4 (≈ 11.4 µM) | 8 (≈ 22.8 µM) | 8 (≈ 22.8 µM) | 4 (≈ 11.4 µM) | 4 (≈ 11.4 µM) | 4 (≈ 11.4 µM) | 4 (≈ 11.4 µM) | – | – | – | – | – | –
9 | O=C(NC[C@H]1CN(c2ccc(N3CCOCC3)c(F)c2)C(=O)O1)c1cc2ncccc2o1 | 16 (≈ 36.3 µM) | 16 (≈ 36.3 µM) | 16 (≈ 36.3 µM) | 16 (≈ 36.3 µM) | 16 (≈ 36.3 µM) | 8 (≈ 18.2 µM) | 16 (≈ 36.3 µM) | – | – | – | – | – | –
10 | O=C(Cc1nnn[nH]1)NC[C@H]1CN(c2ccc(N3CCNCC3)c(F)c2)C(=O)O1 | > 128 | > 128 | > 128 | > 128 | > 128 | > 128 | > 128 | – | – | – | – | – | –
11 | NCCC(=O)NC[C@H]1CN(c2ccc(N3CCOCC3)c(F)c2)C(=O)O1 | > 128 | > 128 | > 128 | > 128 | > 128 | 128 (≈ 349 µM) | 16 (≈ 43.7 µM) | – | – | – | – | – | –
12 | Cc1ncsc1C(=O)NC[C@H]1CN(c2ccc(N3CCOCC3)c(F)c2)C(=O)O1 | 16 (≈ 38.1 µM) | 16 (≈ 38.1 µM) | 16 (≈ 38.1 µM) | 32 (≈ 76.1 µM) | 32 (≈ 76.1 µM) | 16 (≈ 38.1 µM) | 16 (≈ 38.1 µM) | inactive | inactive | 16 | inactive | inactive | –
13 | O=C(NC[C@H]1CN(c2ccc(N3CCOCC3)c(F)c2)C(=O)O1)C1CCCS1 (some centres undefined) | 32 (≈ 78.1 µM) | 64 (≈ 156 µM) | 32 (≈ 78.1 µM) | 32 (≈ 78.1 µM) | 32 (≈ 78.1 µM) | 32 (≈ 78.1 µM) | 32 (≈ 78.1 µM) | – | – | – | – | – | –
14 | O=C(NC[C@H]1CN(c2ccc(N3CCOCC3)c(F)c2)C(=O)O1)c1ccsc1 | 16 (≈ 39.5 µM) | 16 (≈ 39.5 µM) | 16 (≈ 39.5 µM) | 8 (≈ 19.7 µM) | 16 (≈ 39.5 µM) | 8 (≈ 19.7 µM) | 8 (≈ 19.7 µM) | – | – | – | – | – | –
15 | O=C(NC[C@H]1CN(c2ccc(N3CCOCC3)c(F)c2)C(=O)O1)c1cnc(Br)s1 | 16 (≈ 33 µM) | 16 (≈ 33 µM) | 32 (≈ 65.9 µM) | 32 (≈ 65.9 µM) | 32 (≈ 65.9 µM) | 16 (≈ 33 µM) | 8 (≈ 16.5 µM) | inactive | inactive | 16 | inactive | inactive | –
16 | CC(=O)NC[C@H]1CN(c2ccc(N3CCOCC3)c(F)c2)C(=O)O1 [LINEZOLID] | – | – | – | – | – | – | 2 (≈ 5.93 µM) | – | – | – | – | – | –
17 | CCCC(=O)NC[C@H]1CN(c2ccc(N3CCOCC3)c(F)c2)C(=O)O1 | 8 (≈ 21.9 µM) | 8 (≈ 21.9 µM) | 16 (≈ 43.8 µM) | 8 (≈ 21.9 µM) | 8 (≈ 21.9 µM) | 8 (≈ 21.9 µM) | 8 (≈ 21.9 µM) | – | – | – | – | – | –
18 | O=C(Cc1cccc2ccccc12)NC[C@H]1CN(c2ccc(N3CCOCC3)c(F)c2)C(=O)O1 | > 128 | > 128 | > 128 | > 128 | > 128 | 32 (≈ 69 µM) | 64 (≈ 138 µM) | – | – | – | – | – | –
19 | CN1CCC(C(=O)NC[C@H]2CN(c3ccc(N4CCOCC4)c(F)c3)C(=O)O2)C1 (some centres undefined) | > 128 | > 128 | > 128 | > 128 | > 128 | > 128 | > 128 | – | – | – | – | – | –
20 | O=C(NC[C@H]1CN(c2ccc(N3CCOCC3)c(F)c2)C(=O)O1)[C@H]1CCNC1 | > 128 | > 128 | > 128 | > 128 | > 128 | > 128 | > 128 | inactive | inactive | – | inactive | inactive | inactive
21 | Cc1nc(Br)sc1C(=O)NC[C@H]1CN(c2ccc(N3CCOCC3)c(F)c2)C(=O)O1 | 16 (≈ 32 µM) | 16 (≈ 32 µM) | 16 (≈ 32 µM) | 16 (≈ 32 µM) | 32 (≈ 64.1 µM) | 32 (≈ 64.1 µM) | 32 (≈ 64.1 µM) | – | – | – | – | – | –
22 | Cc1ccc(CC(=O)NC[C@H]2CN(c3ccc(N4CCOCC4)c(F)c3)C(=O)O2)cc1 | 64 (≈ 150 µM) | 128 (≈ 299 µM) | 128 (≈ 299 µM) | 64 (≈ 150 µM) | 64 (≈ 150 µM) | 16 (≈ 37.4 µM) | 16 (≈ 37.4 µM) | – | – | – | – | – | –
23 | O=C(NC[C@H]1CN(c2ccc(N3CCOCC3)c(F)c2)C(=O)O1)c1ccccc1 | 32 (≈ 80.1 µM) | 64 (≈ 160 µM) | 32 (≈ 80.1 µM) | 16 (≈ 40.1 µM) | 32 (≈ 80.1 µM) | 16 (≈ 40.1 µM) | 16 (≈ 40.1 µM) | – | – | – | – | – | –
24 | CC(C)C(=O)NC[C@H]1CN(c2ccc(N3CCOCC3)c(F)c2)C(=O)O1 | 16 (≈ 43.8 µM) | 16 (≈ 43.8 µM) | 16 (≈ 43.8 µM) | 8 (≈ 21.9 µM) | 16 (≈ 43.8 µM) | 8 (≈ 21.9 µM) | 8 (≈ 21.9 µM) | – | – | – | – | – | –
25 | O=C(NC[C@H]1CN(c2ccc(N3CCOCC3)c(F)c2)C(=O)O1)c1cc2ccccc2[nH]1 | > 128 | > 128 | > 128 | > 128 | > 128 | > 128 | > 128 | – | – | – | – | – | –
26 | O=C(NC[C@H]1CN(c2ccc(N3CCOCC3)c(F)c2)C(=O)O1)c1cc[nH]c1 | 64 (≈ 165 µM) | 32 (≈ 82.4 µM) | 32 (≈ 82.4 µM) | 64 (≈ 165 µM) | 32 (≈ 82.4 µM) | 32 (≈ 82.4 µM) | 16 (≈ 41.2 µM) | – | – | – | – | – | –
27 | O=C(NC[C@H]1CN(c2ccc(N3CCOCC3)c(F)c2)C(=O)O1)c1cccs1 | 16 (≈ 39.5 µM) | 16 (≈ 39.5 µM) | 16 (≈ 39.5 µM) | 8 (≈ 19.7 µM) | 16 (≈ 39.5 µM) | 8 (≈ 19.7 µM) | 8 (≈ 19.7 µM) | inactive | inactive | 16 | inactive | inactive | –
28 | O=C(NC[C@H]1CN(c2ccc(N3CCOCC3)c(F)c2)C(=O)O1)c1cnccn1 | 64 (≈ 159 µM) | 64 (≈ 159 µM) | 64 (≈ 159 µM) | 32 (≈ 79.7 µM) | 64 (≈ 159 µM) | 64 (≈ 159 µM) | 64 (≈ 159 µM) | – | – | – | – | – | –
29 | O=C(NC[C@H]1CN(c2ccc(N3CCOCC3)c(F)c2)C(=O)O1)[C@@H]1CCNC1 | > 128 | > 128 | > 128 | > 128 | > 128 | > 128 | > 128 | inactive | inactive | – | inactive | inactive | inactive
30 | NCCCC(=O)NC[C@H]1CN(c2ccc(N3CCOCC3)c(F)c2)C(=O)O1 | > 128 | > 128 | > 128 | > 128 | > 128 | > 128 | 64 (≈ 168 µM) | – | – | – | – | – | –
